Reference: US11891642B2, “Biocatalytic techniques” (HYPHA DISCOVERY LIMITED, priority 2018, dated 2024)
Substitutions are numbered along the chain they refer to. In names and notes the source's numbering stands.

What was measured:
[1] = system: R63W mutant of codon optimised P450SriC12; experiment: Cell-free hydroxylase/dealkylase assay, lyophilised extract incubated with bosentan, UPLC-MS; type: biochemical, Streptomyces rimosus NRRL-2234; settings: 0.1 mg/ml bosentan, 27° C., 16-20 hours
Method: (§1) Lyophilised material of recombinant P450, ferredoxin and ferredoxin reductase proteins was made as described in Example 3 and reconstituted in high purity water to 90% the original volume. Biocatalysis was performed at 27° C. in the following conditions: 50 mM potassium phosphate pH 7.4, 5 mM MgCl2, 0.1 mg/ml substrate compound such as bosentan, cyclosporine A, diclofenac, ritonavir, tivantinib, valsartan or vanoxerine, native concentration of P450, ferredoxin and ferredoxin reductase as extracted (Example 3). Reactions were initiated by addition of 10× stock of cofactor mixture (50 mM G6P, 10 mM NADP, 10 UN/ml G6PDH) to provide a final volume of e.g., 100 μL. After 16-20 hours, reactions were extracted with an equal volume of acetonitrile, centrifuged to remove precipitated proteins and conversion assessed by UPLC-MS analysis.
(§2) Acidic Analysis Conditions • Column: Acquity UPLC BEH Shield RP18 1.7 μm 2.1 mm i.d. 50 mm length • Column temperature: 45° C. • Solvents: H2O, B: Acetonitrile, both with 0.1% Formic acid • Flow rate: 1.0 ml/min • Gradient (A9%/B %): t=0 mins: 98/2 to 2/98 at t=2.4 mins and held for a further 0.4 mins (2.8 mins total), return to 98/2 over 0.05 mins and re-equilibrated for 0.15 mins (t=3 mins) at a flow-rate of 1.0 mL/min.
(§3) Basic Analysis Conditions • Column: Waters Acquity UPLC BEH C18 1.7 μm 2.1 mm i.d. 50 mm length • Column temperature: 45° C. • Solvents: A: 10 mM ammonium bicarbonate in H2O, B: Acetonitrile • Gradient (A %/B %): t=0 mins: 98/2 to 2/98 at t=2.4 mins and held for a further 0.4 mins (2.8 mins total), return to 98/2 over 0.05 mins and re-equilibrated for 0.15 mins (t=3 mins) at a flow-rate of 1.0 mL/min. • Detector: Waters Acquity UPLC PDA (UV-Vis detection) and Waters Acquity UPLC QDA (MS)
(§4) The resulting plasmids containing the new mutants genes were transformed into recombinant E. coli strains for expression as described in Example 1, cultured and induced as described in Example 2, extracted and processed as described in Example 3 and tested for biocatalytic activity as described in Example 5 above.

[2] = system: native codon optimised P450SriC12; experiment: as above; type: biochemical, Streptomyces rimosus NRRL-2234; settings: 0.1 mg/ml bosentan, 27° C., 16-20 hours
Method: as §1, §2, §3, §4

[3] = system: S. lividans HD000 negative control; experiment: Whole-cell biotransformation of ritonavir in 24-well block format, empty-vector strain; type: cell-based, Streptomyces lividans; settings: for +16 Da (1.67 min) / +16 Da (1.72 min) / +16 Da (1.76 min) / Parent (1.90 min): ritonavir 100 mg/L
Method: As a negative control, an empty plJ12551 expression vector was introduced into S. lividans TK24 by triparental conjugation as described above and designated as S. lividans […].
(§5) Approximately 10^8 cells of S. lividans HD000 and S. lividans […] inoculated separately into 50 mL of culture medium (containing 5 g/L glycerol; 20 g/L glucose; 5 g/L yeast extract peptone; 2 g/L meat extract; 5 g/L mycological peptone; 1 g/L ammonium phosphate dibasic; 3 g/I sodium chloride; 0.3 g/L magnesium sulphate heptahydrate and 3.5 g/L calcium carbonate, adjusted to pH 7.0 and sterilised at 115° C. for 15 minutes) in 250 mL baffled flasks and incubated shaking at 27° C., 200 rpm for 48 hours. In a 24-well micro-bioreactor block (EnzyScreen, Netherlands), 2.5 mL of S. lividans HD000 and S. lividans HD002 were dosed with ritonavir at a concentration of 100 mg/L. Ritonavir was formulated with 20% hydroxypropyl-p-cyclodextrin (prepared via 1 in 25 dilution of a stock solution of 25 mg ritonavir in 1 mL DMSO). Cultures were time-coursed daily after dosing to assess the production of the target metabolite hydroxy-ritonavir as in Example 5.
(§6) Conversions of ritonavir improved with longer incubations with the drug.

[4] = system: P450SriC12-ferredoxinSriF05-ferredoxin reductaseSCF15A expressed in S. lividans HD002; experiment: Whole-cell biotransformation of ritonavir in 24-well block format; type: cell-based, Streptomyces rimosus NRRL-2234; settings: for +16 Da (1.67 min) / +16 Da (1.72 min) / +16 Da (1.76 min) / Parent (1.90 min): ritonavir 100 mg/L
Method: as §5, §6

[5] = Concentration of cytochrome P450 in cell-free extract by carbon monoxide difference spectrum (Omura and Sato); settings: mutant P450SriC12 expressed in E. coli BL21 (DE3)
Method: Measurement is performed according to the method of Omura and Sato et al. (J Biol Chem, 239. 1964, 2370). That is to say, cytochrome P450 is analyzed quantitatively using the following formula, based on the difference in the absorbance of the reduced CO versus the reduced difference spectrum at 450 nm and 490 nm.
Measurement of the concentration of cytochrome P450 were performed according to the method of Omura and Sato et al. (J Biol Chem, 239. 1964, 2370). Cytochrome P450 concentrations of cell-free extracts of induced E. coli BL21 (DE3) Rosetta2 & Tuner cells harbouring either pHD05-SriC01, pHD02-SriC12-SriF05, pHD05-SriC14-SriF06, pHD05-SriC20, pHD05-SriC22 or pHD05-SriC51-SriF08 are shown in Table 2. Carbon monoxide difference spectra for P450SriC01, P450SriC12, P450SriC14, P450SriC20, P450SriC22 and P450SriC51 are shown in FIGS. 9, 10, 11, 19, 20 & 21 respectively.
The native and codon optimised P450sriC12 and ferredoxinsriF05 in pHD02-SriC12-SriF05 and pHD02-SriC12CO-SriF05CO respectively were introduced into E. coli BL21 (DE3). The recombinant strains were cultured and proteins were induced as in Example 2. The cell-free extract material was obtained as in Example 3 and carbon monoxide difference spectrums were measure to calculate the concentration of cytochrome P450.
as §4, with “above. The carbon monoxide difference spectrum result of R63W mutant of codon optimised P450SriC12 is shown in FIG. 14 and the cytochrome P450 concentration of mutant P450SriC12 are shown in Table 5.” for “above.”

COc1ccccc1Oc1c(NS(=O)(=O)c2ccc(C(C)(C)C)cc2)nc(-c2ncccn2)nc1OCCO [bosentan]
hydroxy-bosentan product [1]: no hydroxy-bosentan product was detected
yield of the O-demethyl-bosentan product [1]: 63.2%
yield of the O-demethyl-bosentan product [2]: 3.3%

CC(C)c1nc(CN(C)C(=O)N[C@H](C(=O)N[C@@H](Cc2ccccc2)C[C@H](O)[C@H](Cc2ccccc2)NC(=O)OCc2cncs2)C(C)C)cs1 [ritonavir]
+16 Da (1.67 min) ([3]; sampling 24 hour): 0.0%
+16 Da (1.72 min) ([3]; sampling 24 hour): 0.0%
+16 Da (1.76 min) ([3]; sampling 24 hour): 0.0%
Parent (1.90 min) ([3]; sampling 24 hour): 100.0%
+16 Da (1.67 min) ([3]; sampling 48 hour): 0.0%
+16 Da (1.72 min) ([3]; sampling 48 hour): 0.0%
+16 Da (1.76 min) ([3]; sampling 48 hour): 0.0%
Parent (1.90 min) ([3]; sampling 48 hour): 100.0%
+16 Da (1.67 min) ([3]; sampling 120 hour): 0.0%
+16 Da (1.72 min) ([3]; sampling 120 hour): 0.0%
+16 Da (1.76 min) ([3]; sampling 120 hour): 0.0%
Parent (1.90 min) ([3]; sampling 120 hour): 100.0%
hydroxylation of ritonavir (in words) ([3]; whole cells): unable to hydroxylate ritonavir
+16 Da (1.67 min) ([4]; sampling 24 hour): 7.1%
+16 Da (1.72 min) ([4]; sampling 24 hour): 18.9%
+16 Da (1.76 min) ([4]; sampling 24 hour): 1.4%
Parent (1.90 min) ([4]; sampling 24 hour): 68.5%
+16 Da (1.67 min) ([4]; sampling 48 hour): 8.6%
+16 Da (1.72 min) ([4]; sampling 48 hour): 23.6%
+16 Da (1.76 min) ([4]; sampling 48 hour): 2.8%
Parent (1.90 min) ([4]; sampling 48 hour): 58.6%
+16 Da (1.67 min) ([4]; sampling 120 hour): 9.1%
+16 Da (1.72 min) ([4]; sampling 120 hour): 28.1%
+16 Da (1.76 min) ([4]; sampling 120 hour): 1.4%
Parent (1.90 min) ([4]; sampling 120 hour): 51.2%
hydroxylation of ritonavir (in words) ([4]; whole-cell biotransformation): able to hydroxylate ritonavir

B1: Mutant 10 L171I: L171I mutant of codon optimised cytochrome SriC12, SEQ ID NO: 235 (protein)
chain: MTEALPFPQDRTCPYDPPAGYQPLRDSRPLSRVTLYDGRPAWVVTGHAESRALLTDPRLSADRQNPAFPSPAPRFETLRKVRTPLLGVDDPEHNTQRRMLIPSFSVKRAAALRPRIQEIVDRLLDAMEQQGPPAELVSAFALPVPSMVICALLGVPYADHELFEGLSRTLIQSADPQEVTEARDKLEDYFTALVERKRKEPGDGLLDELIAERLDSGELGHRELVRMAMLLLVAGHETTSNMLSLGTFTLLEHPEQFAALRADPSLLPAAVEELLRFLSIADGMVRVATEDIEIGGVTIRADDGVIFSTSVVNRDGAAYASPDTLDWERSARHHVAFGFGVHQCLGQNLARAEMEIAFGALFARFPGLRLAVPAAEIPVKPAHALQGLVELPVTW
modifications: L171I mutant of SriC12
P450 concentration [5]: 12.4 µM

B2: Mutant 14 L230I: L230I mutant of codon optimised cytochrome SriC12, SEQ ID NO: 237 (protein)
chain: B1 chain with I171L, L230I
modifications: L230I mutant of SriC12
P450 concentration [5]: 3.5 µM

B3: Mutant 17 R63W R74Y: R63W R74Y mutant of codon optimised cytochrome SriC12, SEQ ID NO: 251 (protein)
chain: B1 chain with R63W, R74Y, I171L
modifications: R63W R74Y mutant of SriC12
P450 concentration [5]: 27.6 µM

B4: Mutant 18 R63W L171A: R63W L171A mutant of codon optimised cytochrome SriC12, SEQ ID NO: 253 (protein)
chain: B1 chain with R63W, I171A
modifications: R63W L171A mutant of SriC12
P450 concentration [5]: 22.4 µM

B5: Mutant 20 R74Y L171A R183W: R74Y L171A R183W mutant of codon optimised cytochrome SriC12, SEQ ID NO: 255 (protein)
chain: B1 chain with R74Y, I171A, R183W
modifications: R74Y L171A R183W mutant of SriC12
P450 concentration [5]: 14.1 µM

B6: Mutant 22 R63W R74Y L171A: R63W R74Y L171A mutant of codon optimised cytochrome SriC12, SEQ ID NO: 257 (protein)
chain: B1 chain with R63W, R74Y, I171A
modifications: R63W R74Y L171A mutant of SriC12
P450 concentration [5]: 19.9 µM

B7: Mutant 1 R63W: R63W mutant of codon optimised cytochrome SriC12, SEQ ID NO: 231 (protein)
chain: B1 chain with R63W, I171L
modifications: R63W mutant of SriC12
P450 concentration [5]: 17.6 µM

B8: Mutant 2 R63Y: R63Y mutant of codon optimised cytochrome SriC12, SEQ ID NO: 233 (protein)
chain: B1 chain with R63Y, I171L
modifications: R63Y mutant of SriC12
P450 concentration [5]: 6.2 µM
